Assay results reported in patent US9962447B2, “Supramolecular aggregates comprising maleimido cores” (UFPEPTIDES S.R.L., priority 2013, dated 2018).

Assays:
human NOP receptor = human NOP receptor (Homo sapiens, UniProt P41146); assay: Calcium mobilization in CHO cells expressing human NOP receptor and Gαqi5; assay type: cell-based; conditions: inactive = inactive up to 1 μM
Method: (§1) Cells were maintained in culture medium consisting of Dulbecco's MEM/HAM'S F-12 (50/50) supplemented with 10% foetal calf serum, penicillin (100 IU/ml), streptomycin (100 μg/ml), fungizone (2.5 μg/ml), geneticin (G418; 200 μg/ml) and hygromycin B (200 mg/ml). Cell cultures were kept at 37° C. in 5% CO2 humidified air. In all cases experimental cultures were free from selection agents (hygromycin B, G418). When confluence was reached (3-4 days), cells were sub-cultured as required using trypsin EDTA and used for experimentation. Cells were seeded at a density of 50,000 cells/well into 96-well black, clear-bottom plates. After 24 hours incubation the cells were loaded with medium supplemented with 2.5 mM probenecid, 3 μM of the calcium sensitive fluorescent dye Fluo-4 AM and 0.01% pluronic acid, for 30 min at 37° C. Afterwards the loading solution was aspirated and 100 μl/well of assay buffer: Hank's Balanced Salt Solution (HBSS) supplemented with 20 mM HEPES, 2.5 mM probenecid and 500 μM Brilliant Black (Aldrich) was added. […] On-line additions were carried out in a volume of 50 μl/well. To facilitate drug diffusion into the wells in antagonist type experiments, the present studies were performed at 37° C. and three cycles of mixing (25 μl from each well moved up and down 3 times) were performed immediately after antagonist injection to the wells.
(§2) Four mice were monitored in parallel. […] Animals locomotion was recorded for 60 min.

KOP receptor = KOP receptor (Homo sapiens, UniProt P41145); assay: Calcium mobilization in CHO cells expressing KOP receptor and Gαqi5; assay type: cell-based; conditions: inactive = inactive up to 1 μM
KOP receptor, sequence (P41145 whole entry, the tested form may be a part): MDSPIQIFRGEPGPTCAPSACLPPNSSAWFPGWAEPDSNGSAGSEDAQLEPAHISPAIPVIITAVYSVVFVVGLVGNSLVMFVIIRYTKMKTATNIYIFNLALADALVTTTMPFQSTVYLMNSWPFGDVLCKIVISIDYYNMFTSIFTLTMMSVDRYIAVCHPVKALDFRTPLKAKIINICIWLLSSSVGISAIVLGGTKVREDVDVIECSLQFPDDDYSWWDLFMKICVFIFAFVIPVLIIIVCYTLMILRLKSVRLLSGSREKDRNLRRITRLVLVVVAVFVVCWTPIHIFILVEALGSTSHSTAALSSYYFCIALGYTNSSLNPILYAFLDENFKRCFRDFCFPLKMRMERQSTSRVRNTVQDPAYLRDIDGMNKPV
Method: as §1, with “To facilitate drug diffusion into the wells in antagonist type experiments, the present studies were performed at 37° C. and three cycles of mixing (25 μl from each well moved up and down 3 times) were performed immediately after antagonist injection to the wells.” left out
as §2

DOP receptor = target: T1, DOP receptor (Homo sapiens, UniProt P41143); assay: Calcium mobilization in CHO cells expressing DOP receptor and GαqG66Di5; assay type: cell-based
T1 construct: expressed in transfected cells; host or cells: CHO cells co-expressing GαqG66Di5
T1 sequence (P41143 whole entry): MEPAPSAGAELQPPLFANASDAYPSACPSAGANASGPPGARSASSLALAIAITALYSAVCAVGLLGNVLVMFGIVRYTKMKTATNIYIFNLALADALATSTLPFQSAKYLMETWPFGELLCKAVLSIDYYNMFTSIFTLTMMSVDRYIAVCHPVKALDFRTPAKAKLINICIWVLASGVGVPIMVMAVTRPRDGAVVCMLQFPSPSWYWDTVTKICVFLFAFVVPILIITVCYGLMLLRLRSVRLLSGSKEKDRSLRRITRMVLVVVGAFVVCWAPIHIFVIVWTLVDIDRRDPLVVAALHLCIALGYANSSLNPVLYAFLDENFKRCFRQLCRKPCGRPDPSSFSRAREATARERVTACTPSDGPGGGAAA
Method: as §1, with “Cell” for “Cells were maintained in culture medium consisting of Dulbecco's MEM/HAM'S F-12 (50/50) supplemented with 10% foetal calf serum, penicillin (100 IU/ml), streptomycin (100 μg/ml), fungizone (2.5 μg/ml), geneticin (G418; 200 μg/ml) and hygromycin B (200 mg/ml). Cell”
as §2

[1] = system: vas deferens tissues taken from NOP(+/+) mice; assay: Electrically stimulated vas deferens from NOP(+/+) mice; set-up: species or system mouse
Method: The bath temperature was set at 33° C. Tissues were continuously stimulated through two platinum ring electrodes with supramaximal rectangular pulses of 1 ms duration and 0.05 Hz frequency. A resting tension of 0.3 g was applied to the vas deferens. […] Following an equilibration period of 60 min, the contractions induced by electrical field stimulation were stable.

MOP receptor = MOP receptor (Homo sapiens, UniProt P35372); assay: Calcium mobilization in CHO cells expressing MOP receptor and Gαqi5; assay type: cell-based; conditions: inactive = inactive up to 1 μM
MOP receptor, sequence (P35372 whole entry): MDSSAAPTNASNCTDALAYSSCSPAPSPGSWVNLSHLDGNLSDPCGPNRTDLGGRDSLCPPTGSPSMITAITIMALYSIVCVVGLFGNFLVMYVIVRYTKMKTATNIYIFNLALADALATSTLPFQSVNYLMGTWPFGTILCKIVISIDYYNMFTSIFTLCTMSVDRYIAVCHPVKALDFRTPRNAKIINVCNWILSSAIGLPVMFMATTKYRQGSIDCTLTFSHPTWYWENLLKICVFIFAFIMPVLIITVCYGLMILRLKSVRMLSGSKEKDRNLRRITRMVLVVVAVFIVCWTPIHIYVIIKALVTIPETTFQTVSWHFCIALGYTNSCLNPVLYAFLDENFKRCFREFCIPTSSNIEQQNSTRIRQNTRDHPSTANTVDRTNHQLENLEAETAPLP
Method: as §1, with “Cell” for “Cells were maintained in culture medium consisting of Dulbecco's MEM/HAM'S F-12 (50/50) supplemented with 10% foetal calf serum, penicillin (100 IU/ml), streptomycin (100 μg/ml), fungizone (2.5 μg/ml), geneticin (G418; 200 μg/ml) and hygromycin B (200 mg/ml). Cell”
as §2

[2] = system: vas deferens tissues taken from NOP(−/−) mice; assay: Electrically stimulated vas deferens from NOP(−/−) mice; set-up: species or system mouse
Method: The mouse vas deferens were prepared as previously described (Calto et al., Eur J Pharmacol. 311, (1996) R3-5). Tissues were suspended in 5 ml organ baths containing heated Krebs solution (composition in mM: NaCl 118.5, KCl 4.7, KH2PO4 1.2, NaHCO3 25, glucose 10 and CaCl2 2.5) oxygenated with 95% O2 and 5% CO2. The bath temperature was set at 33° C. Tissues were continuously stimulated through two platinum ring electrodes with supramaximal rectangular pulses of 1 ms duration and 0.05 Hz frequency. A resting tension of 0.3 g was applied to the vas deferens. The electrically evoked contractions (twitches) were measured isotonically with a strain gauge transducer (Basile 7006, UgoBasile s.r.l., Varese, Italy) and recorded with the PC based acquisition system Power Lab (ADInstrument, USA). Following an equilibration period of 60 min, the contractions induced by electrical field stimulation were stable.

[3] = system: electrically stimulated mouse vas deferens; assay: Electrically stimulated mouse vas deferens
Method: The bath temperature was set at 33° C. Tissues were continuously stimulated through two platinum ring electrodes with supramaximal rectangular pulses of 1 ms duration and 0.05 Hz frequency. A resting tension of 0.3 g was applied to the vas deferens.
assuming a slope value equal to unity, where CR indicate the ratio between agonist potency in the presence and absence of antagonist.

[4] = system: electrically stimulated mouse vas deferens; conditions: versus N/OFQ; Spagnolo et al. 2007; cited from earlier work

human NOP receptor, sequence (P41146 whole entry): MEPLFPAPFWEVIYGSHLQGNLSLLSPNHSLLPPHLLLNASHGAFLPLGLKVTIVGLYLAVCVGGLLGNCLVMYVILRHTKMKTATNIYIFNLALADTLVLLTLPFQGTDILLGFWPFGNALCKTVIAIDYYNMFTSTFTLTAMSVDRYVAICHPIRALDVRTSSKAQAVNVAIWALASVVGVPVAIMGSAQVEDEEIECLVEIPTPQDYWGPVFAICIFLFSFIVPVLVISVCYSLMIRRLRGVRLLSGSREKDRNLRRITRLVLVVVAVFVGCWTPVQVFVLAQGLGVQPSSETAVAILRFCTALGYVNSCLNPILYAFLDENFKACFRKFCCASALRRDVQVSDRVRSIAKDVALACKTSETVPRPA

In the case of Dynorphin A, the “pEC50 (CL95%)” value (human NOP receptor) is reported as “inactive”.

For `C[C@@H](NC(=O)[C@@H](N)Cc1ccc(O)cc1)C(=O)N[C@@H](Cc1ccccc1)C(=O)NCC(=O)N[C@@H](Cc1ccc(O)cc1)C(=O)N1CCC[C@H]1C(=O)N[C@@H](CO)C(N)=O` [Dermorphin], the “pEC50 (CL95%)” value (human NOP receptor) was “inactive”, the pEC50 (KOP receptor) was “inactive” and the pEC50 (DOP receptor; inactive = inactive up to 1 μM) was “inactive”.

With DPDPE the “pEC50 (CL95%)” value (human NOP receptor) was “inactive”, the pEC50 (KOP receptor) was “inactive” and the pEC50 ([1]; CL95% in brackets) was 8.45 (8.19-8.71). The Emax ([1]; maximal inhibition of electrically induced contractions) was 91 ± 3%, the pEC50 (MOP receptor) was “inactive” and the Emax [2] was 94 ± 3. The pEC50 ([2]; CL95% in brackets) was 8.42 (8.16-8.68) and the maximal effects (DOP receptor) was 86±14%.

In the case of `Cc1cccc2c1CC[C@H](CN1CCC(c3c(Cl)cccc3Cl)CC1)C[C@@H]2O` [SB-612111, reference compound], the “effect per se on control twitches” value ([3]; 100 nM) is given as “did not modify per se the control twitches”, the Kb ([3]; Mus musculus, read-out: SB-612111 pKB (CL95%), SB-612111 100 nM versus N/OFQ (converted)) is given as 3.31 nM and the “SB-612111 pKB, literature” value [4] is given as 8.50.
